Measured values from PMC8550792, “Evolution of kinase polypharmacology across HSP90 drug discovery” (Cell Chemical Biology, 2021).

Experiments:
Experiment in all cases: biochemical
Assay type in all cases: biochemical
382 unique human kinases [1] = target: T1, 382 unique human kinases (Homo sapiens, UniProt Q6DT37); conditions: DMPK2, 10 uM; for remaining activity at 10 µM: read-out: % Enzyme Activity (relative to DMSO controls)
T1 construct: purchased Reaction Biology (HotSpot contract assay)

382 unique human kinases [2] = target: T2, 382 unique human kinases (Homo sapiens, UniProt O94804); conditions: LOK/STK10, 10 uM; for remaining activity at 10 µM: read-out: % Enzyme Activity (relative to DMSO controls)
T2 construct: purchased Reaction Biology (HotSpot contract assay)
T2 sequence (O94804 whole entry): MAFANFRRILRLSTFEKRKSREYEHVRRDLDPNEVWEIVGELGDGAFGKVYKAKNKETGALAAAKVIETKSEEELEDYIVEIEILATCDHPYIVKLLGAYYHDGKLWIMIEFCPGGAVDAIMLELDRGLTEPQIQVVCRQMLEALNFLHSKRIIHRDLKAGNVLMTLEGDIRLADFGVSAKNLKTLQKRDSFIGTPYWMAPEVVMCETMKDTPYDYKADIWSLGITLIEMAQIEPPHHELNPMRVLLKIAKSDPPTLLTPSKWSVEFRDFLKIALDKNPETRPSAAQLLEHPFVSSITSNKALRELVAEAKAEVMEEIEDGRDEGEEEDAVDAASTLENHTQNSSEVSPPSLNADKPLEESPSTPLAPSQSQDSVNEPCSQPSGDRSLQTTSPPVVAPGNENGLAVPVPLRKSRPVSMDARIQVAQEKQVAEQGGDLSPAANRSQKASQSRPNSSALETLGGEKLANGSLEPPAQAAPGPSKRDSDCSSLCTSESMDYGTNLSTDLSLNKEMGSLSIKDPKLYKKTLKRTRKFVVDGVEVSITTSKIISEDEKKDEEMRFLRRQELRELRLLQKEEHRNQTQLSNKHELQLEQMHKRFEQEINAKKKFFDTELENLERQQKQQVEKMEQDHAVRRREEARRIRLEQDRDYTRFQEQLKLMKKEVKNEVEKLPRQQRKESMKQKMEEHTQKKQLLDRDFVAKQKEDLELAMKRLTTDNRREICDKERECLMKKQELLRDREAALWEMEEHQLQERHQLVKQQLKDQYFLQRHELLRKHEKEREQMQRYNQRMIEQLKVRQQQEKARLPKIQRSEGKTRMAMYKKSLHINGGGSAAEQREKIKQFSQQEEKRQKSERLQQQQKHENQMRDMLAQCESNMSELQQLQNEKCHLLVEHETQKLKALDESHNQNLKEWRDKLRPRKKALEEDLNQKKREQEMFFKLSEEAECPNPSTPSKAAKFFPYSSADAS

382 unique human kinases [3] = target: T3, 382 unique human kinases (Homo sapiens, UniProt Q9H422); conditions: HIPK3, compound at 10 uM, duplicate values; for remaining activity at 10 µM: read-out: % Enzyme Activity (relative to DMSO controls)
T3 construct: purchased Reaction Biology (HotSpot contract assay)

382 unique human kinases [4] = target: T4, 382 unique human kinases (Homo sapiens, UniProt P07949, V804E); conditions: RET (V804E), 10 uM; for remaining activity at 10 µM: read-out: % Enzyme Activity (relative to DMSO controls)
T4 construct: purchased Reaction Biology (HotSpot contract assay)

382 unique human kinases [5] = target: T5, 382 unique human kinases (Homo sapiens, UniProt P35626); conditions: GRK3, 10 uM; for remaining activity at 10 µM: read-out: % Enzyme Activity (relative to DMSO controls)
T5 construct: purchased Reaction Biology (HotSpot contract assay)
T5 sequence (P35626 1-688): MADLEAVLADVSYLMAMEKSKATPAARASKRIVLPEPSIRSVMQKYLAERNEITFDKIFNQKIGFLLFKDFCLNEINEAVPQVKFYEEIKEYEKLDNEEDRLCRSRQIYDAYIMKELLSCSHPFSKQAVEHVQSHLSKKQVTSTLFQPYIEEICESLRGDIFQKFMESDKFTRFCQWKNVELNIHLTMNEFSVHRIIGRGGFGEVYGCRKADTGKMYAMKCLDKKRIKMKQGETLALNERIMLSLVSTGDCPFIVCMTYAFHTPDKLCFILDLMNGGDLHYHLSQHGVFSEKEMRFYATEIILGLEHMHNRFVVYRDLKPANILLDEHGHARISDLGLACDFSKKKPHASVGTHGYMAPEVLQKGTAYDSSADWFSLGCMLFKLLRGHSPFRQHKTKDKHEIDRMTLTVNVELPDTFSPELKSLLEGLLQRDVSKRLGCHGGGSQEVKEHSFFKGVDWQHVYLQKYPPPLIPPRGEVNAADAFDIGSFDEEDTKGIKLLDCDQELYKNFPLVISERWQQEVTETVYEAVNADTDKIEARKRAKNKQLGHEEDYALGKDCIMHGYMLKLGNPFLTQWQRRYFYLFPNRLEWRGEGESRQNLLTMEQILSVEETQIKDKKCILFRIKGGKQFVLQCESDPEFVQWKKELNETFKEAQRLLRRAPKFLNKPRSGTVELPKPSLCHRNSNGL

382 unique human kinases [6] = target: T6, 382 unique human kinases (Homo sapiens, UniProt P54764); conditions: EPHA4, [ATP] 30 µM, compound 10 uM; for remaining activity at 10 µM: read-out: % Enzyme Activity (relative to DMSO controls)
T6 construct: purchased Reaction Biology (HotSpot contract assay)

382 unique human kinases [7] = target: T7, 382 unique human kinases (Homo sapiens, UniProt P34947); conditions: GRK5, 10 uM; for remaining activity at 10 µM: read-out: % Enzyme Activity (relative to DMSO controls)
T7 construct: purchased Reaction Biology (HotSpot contract assay)
T7 sequence (P34947 whole entry): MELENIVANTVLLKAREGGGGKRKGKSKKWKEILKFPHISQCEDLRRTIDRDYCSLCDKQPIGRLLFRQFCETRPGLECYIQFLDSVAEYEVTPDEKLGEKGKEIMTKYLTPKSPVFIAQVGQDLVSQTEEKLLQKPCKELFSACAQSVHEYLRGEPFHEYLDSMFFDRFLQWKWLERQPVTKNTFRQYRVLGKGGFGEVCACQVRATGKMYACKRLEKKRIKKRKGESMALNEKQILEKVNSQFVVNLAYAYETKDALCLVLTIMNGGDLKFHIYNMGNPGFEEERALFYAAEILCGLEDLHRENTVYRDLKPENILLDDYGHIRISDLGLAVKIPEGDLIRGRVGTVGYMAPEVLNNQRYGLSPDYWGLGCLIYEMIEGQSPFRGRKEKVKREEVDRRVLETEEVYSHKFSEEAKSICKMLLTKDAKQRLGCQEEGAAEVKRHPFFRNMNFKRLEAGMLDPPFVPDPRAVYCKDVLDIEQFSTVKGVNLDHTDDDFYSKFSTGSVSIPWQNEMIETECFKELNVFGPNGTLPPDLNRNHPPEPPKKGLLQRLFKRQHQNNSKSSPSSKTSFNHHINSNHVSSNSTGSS

382 unique human kinases [8] = target: T8, 382 unique human kinases (Homo sapiens, UniProt P54762); conditions: EPHB1, [ATP] 100 µM, compound 10 uM; for remaining activity at 10 µM: read-out: % Enzyme Activity (relative to DMSO controls)
T8 construct: purchased Reaction Biology (HotSpot contract assay)
T8 sequence (P54762 18-984): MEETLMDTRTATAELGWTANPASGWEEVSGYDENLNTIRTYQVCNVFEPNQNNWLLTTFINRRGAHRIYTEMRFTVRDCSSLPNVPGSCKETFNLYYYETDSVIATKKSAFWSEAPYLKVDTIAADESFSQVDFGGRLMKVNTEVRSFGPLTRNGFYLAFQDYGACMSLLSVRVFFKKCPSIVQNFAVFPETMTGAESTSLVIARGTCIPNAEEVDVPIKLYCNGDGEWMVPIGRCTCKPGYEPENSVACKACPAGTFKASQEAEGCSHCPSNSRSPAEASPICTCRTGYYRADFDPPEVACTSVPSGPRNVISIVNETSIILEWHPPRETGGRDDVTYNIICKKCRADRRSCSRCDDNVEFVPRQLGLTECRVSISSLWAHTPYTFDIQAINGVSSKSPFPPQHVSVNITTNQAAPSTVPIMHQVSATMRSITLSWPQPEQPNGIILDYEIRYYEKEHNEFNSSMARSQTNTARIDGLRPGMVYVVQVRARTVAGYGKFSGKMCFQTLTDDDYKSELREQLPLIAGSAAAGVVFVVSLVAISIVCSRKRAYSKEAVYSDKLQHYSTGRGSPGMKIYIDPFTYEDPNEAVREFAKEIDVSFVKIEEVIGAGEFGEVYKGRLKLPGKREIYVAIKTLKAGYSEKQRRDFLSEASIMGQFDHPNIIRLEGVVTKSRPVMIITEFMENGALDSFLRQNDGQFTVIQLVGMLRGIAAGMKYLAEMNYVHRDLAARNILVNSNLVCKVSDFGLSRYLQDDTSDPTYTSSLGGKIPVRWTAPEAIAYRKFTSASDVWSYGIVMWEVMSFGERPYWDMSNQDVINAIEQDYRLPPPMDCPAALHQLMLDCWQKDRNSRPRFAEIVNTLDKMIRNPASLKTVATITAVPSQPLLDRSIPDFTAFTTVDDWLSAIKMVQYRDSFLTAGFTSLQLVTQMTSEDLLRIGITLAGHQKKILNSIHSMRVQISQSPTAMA

382 unique human kinases [9] = target: T9, 382 unique human kinases (Homo sapiens, UniProt P00519, E255V); conditions: ABL1 (E255V), [ATP] 10 µM, compound 10 uM; for remaining activity at 10 µM: read-out: % Enzyme Activity (relative to DMSO controls)
T9 construct: purchased Reaction Biology (HotSpot contract assay)
T9 sequence (P00519 whole entry E255V): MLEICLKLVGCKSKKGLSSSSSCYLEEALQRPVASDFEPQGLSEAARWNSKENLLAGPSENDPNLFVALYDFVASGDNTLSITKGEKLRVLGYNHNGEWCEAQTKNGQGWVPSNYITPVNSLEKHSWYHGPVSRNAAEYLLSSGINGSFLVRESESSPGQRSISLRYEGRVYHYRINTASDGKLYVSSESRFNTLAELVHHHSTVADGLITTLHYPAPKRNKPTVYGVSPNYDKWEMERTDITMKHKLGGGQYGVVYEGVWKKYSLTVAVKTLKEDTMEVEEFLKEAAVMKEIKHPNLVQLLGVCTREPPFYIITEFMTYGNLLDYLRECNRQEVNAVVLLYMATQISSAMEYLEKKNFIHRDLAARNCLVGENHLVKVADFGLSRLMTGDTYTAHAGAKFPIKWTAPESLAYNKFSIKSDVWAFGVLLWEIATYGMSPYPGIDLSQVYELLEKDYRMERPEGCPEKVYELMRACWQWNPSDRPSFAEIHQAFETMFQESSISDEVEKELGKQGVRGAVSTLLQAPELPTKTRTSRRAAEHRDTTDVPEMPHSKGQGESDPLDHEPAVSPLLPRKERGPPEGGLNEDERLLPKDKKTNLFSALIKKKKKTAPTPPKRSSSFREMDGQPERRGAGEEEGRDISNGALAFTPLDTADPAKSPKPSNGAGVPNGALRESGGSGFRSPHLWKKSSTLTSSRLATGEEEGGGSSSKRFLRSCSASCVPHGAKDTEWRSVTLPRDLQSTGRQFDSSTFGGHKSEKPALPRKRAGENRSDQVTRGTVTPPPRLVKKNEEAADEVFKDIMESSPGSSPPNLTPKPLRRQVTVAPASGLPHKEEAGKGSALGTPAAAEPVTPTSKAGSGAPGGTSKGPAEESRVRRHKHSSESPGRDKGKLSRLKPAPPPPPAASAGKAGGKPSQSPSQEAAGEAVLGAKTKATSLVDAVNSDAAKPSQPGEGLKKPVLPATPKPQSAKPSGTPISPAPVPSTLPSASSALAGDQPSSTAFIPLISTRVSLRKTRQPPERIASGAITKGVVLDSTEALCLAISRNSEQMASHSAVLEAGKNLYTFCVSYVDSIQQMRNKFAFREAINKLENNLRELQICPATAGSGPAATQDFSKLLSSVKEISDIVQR

T1 sequence (Q6DT37 whole entry): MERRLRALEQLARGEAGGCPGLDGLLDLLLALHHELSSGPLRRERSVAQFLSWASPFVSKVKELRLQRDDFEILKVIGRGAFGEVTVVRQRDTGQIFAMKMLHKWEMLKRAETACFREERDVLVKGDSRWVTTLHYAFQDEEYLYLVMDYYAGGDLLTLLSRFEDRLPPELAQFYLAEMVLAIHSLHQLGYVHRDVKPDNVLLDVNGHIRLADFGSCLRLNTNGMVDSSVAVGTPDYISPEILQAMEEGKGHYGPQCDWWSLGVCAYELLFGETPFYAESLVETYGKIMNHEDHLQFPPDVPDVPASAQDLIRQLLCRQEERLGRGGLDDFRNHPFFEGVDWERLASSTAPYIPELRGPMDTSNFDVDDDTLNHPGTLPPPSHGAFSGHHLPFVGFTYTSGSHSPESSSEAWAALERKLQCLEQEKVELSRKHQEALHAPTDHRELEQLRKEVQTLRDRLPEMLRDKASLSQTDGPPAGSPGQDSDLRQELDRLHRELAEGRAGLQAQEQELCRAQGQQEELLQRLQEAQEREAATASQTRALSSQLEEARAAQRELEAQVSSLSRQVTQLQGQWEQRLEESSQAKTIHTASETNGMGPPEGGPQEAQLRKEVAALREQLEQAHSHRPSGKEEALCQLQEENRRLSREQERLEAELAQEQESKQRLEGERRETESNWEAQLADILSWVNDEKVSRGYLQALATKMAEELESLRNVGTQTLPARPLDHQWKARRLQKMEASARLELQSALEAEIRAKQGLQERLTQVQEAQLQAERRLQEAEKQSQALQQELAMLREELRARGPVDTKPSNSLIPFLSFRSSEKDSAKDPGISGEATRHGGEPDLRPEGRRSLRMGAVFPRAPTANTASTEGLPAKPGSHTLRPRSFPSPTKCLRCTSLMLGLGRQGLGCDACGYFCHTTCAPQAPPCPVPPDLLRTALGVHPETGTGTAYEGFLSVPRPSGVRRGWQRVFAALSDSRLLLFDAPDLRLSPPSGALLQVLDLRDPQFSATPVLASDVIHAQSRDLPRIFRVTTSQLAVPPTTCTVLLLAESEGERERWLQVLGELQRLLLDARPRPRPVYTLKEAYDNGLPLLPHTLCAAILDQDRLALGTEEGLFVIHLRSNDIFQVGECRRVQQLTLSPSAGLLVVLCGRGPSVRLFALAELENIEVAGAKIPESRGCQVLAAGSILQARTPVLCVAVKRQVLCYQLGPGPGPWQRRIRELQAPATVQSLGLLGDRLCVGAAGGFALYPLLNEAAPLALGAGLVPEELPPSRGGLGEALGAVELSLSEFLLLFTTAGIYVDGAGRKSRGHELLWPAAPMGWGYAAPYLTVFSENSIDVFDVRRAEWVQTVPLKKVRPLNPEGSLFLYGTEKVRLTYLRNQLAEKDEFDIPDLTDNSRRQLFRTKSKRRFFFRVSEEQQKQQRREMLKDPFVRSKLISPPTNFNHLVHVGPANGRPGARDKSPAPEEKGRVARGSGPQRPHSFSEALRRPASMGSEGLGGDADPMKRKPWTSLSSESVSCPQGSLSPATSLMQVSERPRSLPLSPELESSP

| Compound | remaining activity at 10 µM (382 unique human kinases [1]) | remaining activity at 10 µM (382 unique human kinases [2]) | remaining activity at 10 µM (382 unique human kinases [3]) | remaining activity at 10 µM (382 unique human kinases [4]) | remaining activity at 10 µM (382 unique human kinases [5]) | remaining activity at 10 µM (382 unique human kinases [6]) | remaining activity at 10 µM (382 unique human kinases [7]) | remaining activity at 10 µM (382 unique human kinases [8]) | remaining activity at 10 µM (382 unique human kinases [9]) | % Enzyme Activity (relative to DMSO controls) (382 unique human kinases [4]) | % Enzyme Activity (relative to DMSO controls) (382 unique human kinases [5]) | % Enzyme Activity (relative to DMSO controls) (382 unique human kinases [6]) | % Enzyme Activity (relative to DMSO controls) (382 unique human kinases [7]) | % Enzyme Activity (relative to DMSO controls) (382 unique human kinases [8]) | % Enzyme Activity (relative to DMSO controls) (382 unique human kinases [9]) | % Enzyme Activity (relative to DMSO controls) (382 unique human kinases [1]) | % Enzyme Activity (relative to DMSO controls) (382 unique human kinases [2]) | % Enzyme Activity (relative to DMSO controls) (382 unique human kinases [3]) |
| --- | --- | --- | --- | --- | --- | --- | --- | --- | --- | --- | --- | --- | --- | --- | --- | --- | --- | --- |
| CC(C)c1cc(-c2n[nH]c(=O)n2-c2ccc3c(ccn3C)c2)c(O)cc1O [Ganetespib (STA9090)] | 75.6% | 77% | 111% |  |  |  |  |  |  |  |  |  |  |  |  |  |  |  |
| CC(C)c1cc(-c2n[nH]c(=O)n2-c2ccc3c(ccn3C)c2)c(O)cc1O [Ganetespib] |  |  |  | 92.2% | 109% | 49% | 96% | 36% | 9.72% |  |  |  |  |  |  |  |  |  |
| CCNC(=O)c1noc(-c2cc(C(C)C)c(O)cc2O)c1-c1ccc(CN2CCOCC2)cc1 [Luminespib] |  |  |  | 93.3% | 97.9% | 91.1% | 102% | 92.3% | 9.81% | 91.98% | 96.02% | 90.78% | 101.05% | 90.73% | 9.69% |  |  |  |
| CCNC(=O)c1noc(-c2cc(C(C)C)c(O)cc2O)c1-c1ccc(CN2CCOCC2)cc1 [Luminespib (AUY-922)] | 114% | 86.5% | 108% |  |  |  |  |  |  |  |  |  |  |  |  | 113.14% | 85.80% | 106.96% |
